We go through four compounds from patent US20230107216A1, “PANTETHEINE DERIVATIVES AND USES THEREOF” (Comet Therapeutics, Inc., priority 2018, published 2023).

Read-outs that look alike come from different tables or passages of the source.

The test system of assay [1] is Methylmalonic Acidemia (MMA) primary fibroblasts GM01673. Kind of assay: Mitochondrial respiration, XFe96 Extracellular Flux Analyzer (OCR/ECAR), MMA fibroblasts GM01673. Format: cell-based. The settings on record: Homo sapiens, Fibroblast, 10 μM. The protocol: The effect of the compounds of the present disclosure on mitochondrial respiration was measured with a XFe96 Extracellular Flux Analyzer (Seahorse Bioscience, Agilent Technologies) and Oxygen consumption Rate (OCR) and Extracellular acidification rate (ECAR) determined.
Cell culture and treatments. Primary adherent fibroblasts were cultured in minimum essential medium (MEM) (Gibco, 25030081) supplemented with 2 mM L-Glutamine (Gibco, 25030081), 15% fetal bovine serum (FBS) (Gibco, 26400044) and 1% penicillin/streptomycin (Gibco, 5140122) at 37° C. and 5% CO2. Cells were collected for either passaging or experiment at ˜70-80% confluence. Cells were obtained by trypsinization and seeded at 20000 cells/well in cell culture microplates (Seahorse Bioscience, 101085-004) and allowed to adhere for 16 hours in culture media.
By profiling different primary cells and/or optimizing their culture media or environmental components one can select cell lines and/or conditions that are appropriate for the biological or disease model. In the present example, 24 hours prior to OCR and ECAR profiling, media was changed to Dulbecco's Modified Eagle Medium (DMEM, Agilent Seahorse 103575-100) with the appropriate supplements for the different primary cells (10 mM glucose, 2 mM L-glutamine, 1 mM pyruvate, 10% FBS; 1 mM glucose, 2 mM L-glutamine, 1 mM pyruvate, 10% FBS; 10 mM glucose, 10% FBS; 5 mM glucose 10% FBS; 1 mM glucose 10% FBS). Cells used in this example were: Propionic Acidemia (PA) (GM00371, GM03590 Coriell Institute for Medical Research, Tsi 6337, Tsi 4626, Tsi 3618 Trans-Hit Bio), Methylmalonic Acidemia (MMA) (GM01673, Coriell Institute for Medical Research, Tsi 5224 Trans-Hit Bio), Branched chain ketoacid dehydrogenase kinase (BCKDK) (GM00612, GM00649 Coriell Institute for Medical Research), Subnormal activation of pyruvate dehydrogenase complex (PDH) (GM01503 Coriell Institute for Medical Research), Very long-chain acyl-CoA dehydrogenase (VLCAD) (GM17475), Leigh Syndrome (LS) (GM03672, GM13411 Coriell Institute for Medical Research), Pyruvate Carboxylase Deficiency (PC) (GM00444 Coriell Institute for Medical Research), Glutaric Acidemia-I (GA) (GM10653), Friedreich's Ataxia (FXN) (GM04078 Coriell Institute for Medical Research, Huntington's disease (HD) (GM21756 Coriell Institute for Medical Research), Ornithine Transcarbamylase Deficiency (OTC) (GM12756 Coriell Institute for Medical Research), Kearns-Sayre Syndrome (KSS) (GM06225 Coriell Institute for Medical Research).
One hour before the assay, the cells were washed with freshly prepared unbuffered serum free-Seahorse XF Assay medium (Seahorse Bioscience, North America, USA, 103575-100) with the same supplements as for the previous 24 hour incubation.
After baseline measurements of OCR, cells were challenged with compounds of the present disclosure at different concentrations (10 to 50 μM) or vehicle (DMSO, 0.1%) and a post-compound baseline was recorded. OCR was measured after sequentially adding to each well 1 μg/ml oligomycin (inhibitor of ATP synthase Sigma-Aldrich, 753531), then maximal OCR was determined with carbonyl cyanide 4-(trifluoromethoxy) phenylhydrazone (FCCP, Sigma-Aldrich, C2920), (uncoupler of oxidative phosphorylation) and 0.5 μM of rotenone (Sigma-Aldrich, R8875) plus antimycin A (Sigma-Aldrich, A8674) (inhibitors of mitochondrial complex I and III) for determination of rotenone-antimycin insensitive respiration together with Hoechst for nuclear staining in situ when normalized to cell counts. After the analysis and nuclear staining, the XFp microplate was transferred to the Cytation 5, and the nuclear images were captured, the individual nuclei were identified and counted by BioTek Gen5 software. Data were expressed as pmol of O2 per minute and normalized by nuclear staining and baselined to pre-compound addition.
Assay conditions were as stated below.
Assay specifics on assay conditions are indicated below when readouts were normalized to cell counts. […]

The subject of assay [2] is Propionic Acidemia (PA) primary fibroblasts GM00371. Kind of assay: Mitochondrial respiration, XFe96 Extracellular Flux Analyzer (OCR/ECAR), PA fibroblasts GM00371. Format: cell-based. The settings on record: Homo sapiens, Fibroblast, 50 μM, read-out: Increase in Maximal Respiratory Capacity AUC.
The subject of assay [3] is primary fibroblasts (healthy controls and PA, MMA, BCKDK, PDH, VLCAD, LS, PC, GA, VLCFA, KSS, FXN, HD). Put plainly: Measurement of ROS (H2DCFDA) in primary fibroblasts. The class given is cell-based, human. The conditions noted are these: Homo sapiens, Fibroblast, PC GM00444, procedure Example 812, Assay Condition C. The essentials: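 Patient and healthy-control primary fibroblasts switched to supplemented DMEM 24 h before assay, then treated with compound (10 μM) plus H2DCFDA (22 μM) for 2 h (PA, MMA lines) or 24 h (other lines). Kinetic fluorescence at 492/527 nm over 60 min; only live cells analysed.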

The subject of assay [4] is HepG2 cells. Kind of assay: MitoBiogenesis In-Cell ELISA (COX-I, SDH-A). The class given is cell-based. The settings on record: Homo sapiens, 168 h, 10 uM, 7 days, read-out: % increase in Mitochondrial Biogenesis. From the text: We determined the effect of compounds of the present disclosure on the levels of two mitochondrial proteins using MitoBiogenesis™ In-Cell ELISA Kit (Abcam ab110216) according to manufacturer's instructions. The two proteins are each subunits of a different oxidative phosphorylation enzyme complex, one protein being subunit I of Complex IV (COX-1), which is mitochondrial (mt)DNA-encoded, and the other being the 70 kDa subunit of Complex II (SDH-A), which is nuclear (n)DNA-encoded. Complex IV includes several proteins which are encoded in the mitochondrion, while the proteins of Complex II are entirely encoded in the nucleus. HepG2 cells (ATCC, HB-8065) were cultured (5% CO2 at 37° C.) and plated in Poly-D-Lysine 384-Well plate (Corning, 356663) at a density of 40,000 cells/mL in 50 μL. Culture and assay media consisted of DMEM (Gibco, 11995-065) supplemented with 1% Penicillin-Streptomycin and 10% FBS (Hyclone, SV30087.03). Cells were allowed to settle for 30 min at room temperature and further incubated overnight (37° C. and 5% CO2) for adherence. Next day, 50-5 μM of the negative control Chloramphenicol (Selleck, S1677), test compounds (50-10 μM) and vehicle DMSO (0.2%) were added at the recommended volumes to the 384-well plate for 7 days without media change using a Tecan compound dispenser. All the solutions and wash buffers were prepared and dispensed according to manufacturer's volumes for a 384-well plate format. Effects of compounds on mtDNA-encoded protein expression (COX-I) and nuclear DNA-encoded mitochondrial protein expression (SDH-A) were expressed as relative signal (nm) to vehicle of a n=2 per conditions.
A general note: An ELISA detects its analyte on a solid surface through an enzyme-linked reagent.

Assay [5] has as its system HepG2 cells. Put plainly: Mitochondrial membrane potential (MITO-ID MP detection Kit). The conditions noted are these: Homo sapiens, 168 h, 7 days, read-out: % decrease in Mitochondrial Membrane Potential. Format: cell-based. In short, it runs like this:
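Cells plated at 160000 cells/mL in DMEM with 10% FBS and 1% Pen-Strep, adhered overnight at 37° C., 5% CO2. Exposure to test compounds (50-10 μM) or 0.2% DMSO for 7 days without media change; membrane potential measured with MITO-ID MP detection kit per manufacturer.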

The test system of assay [6] is HepG2 cells. Put plainly: Glucose uptake (Glucose Uptake-Glo). The class given is cell-based. The conditions noted are these: Homo sapiens, 50 uM, read-out: % increase in Glucose Uptake.
In assay [7] the test system is Peripheral blood mononuclear cells co-cultured with venular endothelial cells (HUVEC) (LPS system). Kind of assay: BioMAP LPS system. The class given is cell-based, human. The conditions noted are these: 10 uM, procedure of Example 827.
The subject of assay [8] is Bronchial epithelial cells co-cultured with dermal fibroblast (BF4T system). Kind of assay: BioMAP BF4T system (TNFα and IL-4). The conditions noted are these: Homo sapiens, 24 h; 1 uM; procedure of Example 830; read-out: % increase in VCAM-1. The class given is cell-based, human.
Assay [9] deals with Bronchial epithelial cells (BE3C system). Put plainly: BioMAP BE3C system (IL-1β, TNFα, IFNγ). The conditions noted are these: Homo sapiens, Epithelial cell, 24 h; 10 uM; procedure of Example 831; read-out: % decrease in MMP-1. Format: cell-based, human.
Assay [10] has as its system Coronary artery smooth muscle cells (CASM3C system). Put plainly: BioMAP CASM3C system (IL-1β, TNFα, IFNγ). The class given is cell-based, human.
The subject of assay [11] is Dermal fibroblasts (HDF3CGF system). Put plainly: BioMAP HDF3CGF system (IL-1β, TNFα, IFNγ, EGF, bFGF, PDGF-BB). Format: cell-based, human. The settings on record: Homo sapiens, Fibroblast, 72 h; 1 uM; read-out: % increase in 72 Hour Proliferation.
Assay [12] deals with Keratinocytes co-cultured with dermal fibroblast (KF3CT system). Put plainly: BioMAP KF3CT system (IL-1β, TNFα, IFNγ, TGFβ). Format: cell-based, human. The settings on record: 1 uM. The protocol:
The BioMAP platform (BioMAP® Diversity PLUS® Panel from Eurofins) is an in vitro phenotypic profiling technology that screened the compounds of the present disclosure (hereafter indicated as test agents) in human primary cell-based systems modelling complex tissue and disease states. The BioMAP assays were performed using the Eurofin's BioMAP Technology Platform as (see references 1 to 13 in the example 824 section) to model different diseases on primary cell-based model systems. These systems consisted of either single primary cell types or co-culture cells. Adherent cell types were cultured or co-cultured in 96 or 384-well plates until confluence followed by the addition of compounds prepared in DMSO at a final concentration of ≤0.1%. In each cell-based system, primary cells from heathy donors (2-6 donors) were pooled and treated with compounds at 1 and 10 μM dose 1h prior to stimulation and remain in culture as indicated in Example 825, Example 826, Example 827, Example 828, Example 829, Example 830, Example 831, Example 832, Example 833, Example 834, Example 835, Example 836 and Example 837. For on the BioMAP® Diversity PLUS® Panel, please see the following references, which are incorporate herein.
Following the general procedure as described in Example 824, Keratinocytes were co-cultured with dermal fibroblast (KF3CT system) and treated with IL-1β, TNFα, IFNγ and TGFβ for 24h in the presence or absence of the compounds to model psoriasis, dermatitis and skin biology. Biomarkers read out were; MCP-1, ICAM-1, IP-10, IL-8, MIG, IL-1α, MMP-9, PAI-1, SRB, TIMP-2, uPA.

For assay [13], the system named is Peripheral blood mononuclear cells co-cultured with B-cells (BT system). Kind of assay: cells. The settings on record: Homo sapiens, 72 h, read-out: % decrease in sIL-17.

For `CC(C)(CO)[C@@H](O)C(=O)NCCC(=O)NCCSC(=O)CC[C@H](N)C(=O)O` [Compound 385, (S)-2-amino-5-((2-(3-((R)-2,4-dihydroxy-3,3-dimethylbutanamido)propanamido)ethyl)thio)-5-oxopentanoic acid], the activation at 10 µM in assay [1] (assay condition A (10 mM glucose, 2 mM L-glutamine, 1 mM pyruvate, 10% FBS), read-out: Increase in Spare Capacity AUC) is not below 10%. In addition, the activation at 50 µM in [2] (assay condition D (1 mM glucose, 10% FBS)) was not below 10%. In addition, the inhibition at 10 µM in [3] (read-out: Decreased ROS by at least 10%) was not below 10%; in [3] (read-out: Decreased ROS by at least 30%) it was not below 30%.
As for `COC(=O)CCC(=O)SCCNC(=O)CCNC(=O)[C@H](O)C(C)(C)COP(=O)(O)O` [Compound 62, Methyl (R)-4-((2-(3-(2-hydroxy-3,3-dimethyl-4-(phosphonooxy)butanamido)propanamido)ethyl)thio)-4-oxobutanoate], the activation at 10 µM in the assay on HepG2 cells [4] is more than 5%. For the same compound, the inhibition at 50 µM with HepG2 cells [5] (50 uM) is more than 50%.
For the compound `CSCCNC(=O)CCNC(=O)[C@H](O)C(C)(C)CO` [Compound 1250, (R)-2,4-dihydroxy-3,3-dimethyl-N-(3-((2-(methylthio)ethyl)amino)-3-oxopropyl)butanamide], the activation at 10 µM in the assay on HepG2 cells [4] was more than 5%. Further, the inhibition at 10 µM with HepG2 cells [5] (10 uM) was more than 50%.
For `CC(C)(CO)[C@@H](O)C(=O)NCCC(=O)NCCSC(CC(=O)O)C(=O)OCC[N+](C)(C)C` (stereo partly drawn) [Compound 57, 3-(2-{3-[(R)-2,4-dihydroxy-3,3-dimethylbutyrylamino]propionylamino}ethylthio)-3-(2-trimethylazaniumethoxycarbonyl)propionic acid], the activation at 10 µM was not below 10% in [1] (assay condition D (1 mM glucose, 10% FBS), read-out: Increase in Maximal Respiratory Capacity AUC) and not below 20% in assay [7] (Homo sapiens, HUVEC, 24 h, read-out: % increase in sTNFα). Further, the activation at 50 µM in [2] (assay condition C (10 mM glucose, 10% FBS)) was not below 10%; in the assay on HepG2 cells [6], not below 20%. Moreover, the “% increase in sPGE2” value in assay [7] was not below 10%. For the same compound, the inhibition at 10 µM was not below 10% in assay [7] (Homo sapiens, HUVEC, 24 h, read-out: % decrease in TissueFactor); not below 10% in assay [9]; not below 20% in assay [10] (Homo sapiens, 24 h, 10 uM, read-out: % decrease in Thrombomodulin); not below 20% in assay [13]. Also, the activation at 1 µM in [8] and in [11] was not below 10% each time. For the same compound, the “% decrease in Tissue Factor” value in assay [10] (1 uM) was not below 10%. Moreover, the “% decrease in Proliferation” value in assay [10] (1 uM, procedure of Example 832) is recorded as not below 10%. In addition, the “% decrease in CXCL9” value in [10] (10 uM) is on record as not below 10%. Besides, the “% decrease in HLA-DR” value in assay [10] (10 uM) was not below 10%. In addition, the “% decrease in PAI-I” value in [12] is given as not below 10%. Also, the “% decrease in MCP-1” value in [12] (procedure of 834) is given as not below 10%.
